Test results reported in PMC9232612, “A phase 1b randomised controlled trial of a glucagon-like peptide-1 and glucagon receptor dual agonist IBI362 (LY3305677) in Chinese patients with type 2 diabetes” (Nature Communications, 2022).
Several values for one entry are separate records, joined by “and”; a condition that tells them apart may be missing. Equal entries are not always repeated.

Columns and labels:
Format in all cases: in vivo, human
[1] = tested on: Chinese patients with T2D; test: Homeostatic model assessment of β-cell function (HOMA-β); settings: 1.5 mg once weekly, n=6
Text: (§1) Exploratory outcomes included change from baseline in body weight, waist circumference, body-mass index (BMI) and change in homeostatic model assessment of β-cell function (HOMA-β) and insulin resistance (HOMA-IR).

[2] = tested on: Chinese patients with T2D; test: Treatment-emergent adverse events (MedDRA SOC/preferred term), 12-week once-weekly s.c. treatment plus 8-week safety follow-up, phase 1b; settings: 1.5 mg once weekly, n=6
Procedure: The study included a 3-week screening period, a 12-week treatment period and an 8-week safety follow-up period. During the 12-week treatment period, IBI362 or placebo was subcutaneously administered once weekly with one of the three dose-escalation schedules: 1.0–2.0–3.0 mg for the 3.0 mg cohort, 1.5–3.0–4.5 mg for the 4.5 mg cohort and 2.0–4.0–6.0 mg for the 6.0 mg cohort (each dose level administered for 4 weeks). The 6.0 mg cohort started dosing after tolerability evaluation of 1.5 mg dosing in the 4.5 mg cohort. The internal unblinded safety monitoring group was responsible for the safety monitoring. Dulaglutide was subcutaneously administered once weekly at a fixed dose of 1.5 mg. Patients who were on metformin prior to the enrolment of this trial were required to continue their previous dose of metformin throughout the trial. Investigators and authorized study personnel in each centre recorded the study data into the electronic case report forms (eCRFs), which were reviewed and validated by clinical research associates. The data in the eCRFs were submitted to the electronic data capture database.
Primary outcomes of the study were the safety and tolerability of IBI362. Safety assessment included adverse events, physical examinations, laboratory tests (including lipase, amylase and calcitonin level measures), vital signs and 12-lead electrocardiogram. Adverse events were categorized according to the Medical Dictionary for Regulatory Activities system organ classes (SOCs) and preferred terms. Treatment-emergent adverse events (TEAEs) were monitored from the time of informed consent to the safety follow-up period. The severity of TEAEs (mild, moderate or severe) and the association between an event and the study drug were assessed by investigators based on pre-specified criteria.
Safety analyses were done in the safety population (defined as all patients who received at least one dose of the study treatment). Pharmacokinetic analyses were done in the pharmacokinetic population (defined as all patients who received at least one dose of IBI362 and had at least one valid plasma concentration assessment).

[3] = tested on: Chinese patients with T2D; test: Mixed-meal tolerance test (MTT): C peptide; settings: 1.5 mg once weekly, n=6
Procedure: HbA1c (2200101, Bio-Rad, USA), blood glucose (05168791190, Roche Diagnostics, Germany), insulin (12017547122, Roche Diagnostics, Germany), C peptide (03184897190, Roche Diagnostics, Germany), total GLP-1 (GLP-1 [7–36] amide and its metabolite, GLP-1 [9–36] amide, 10-1278-01, Mercodia AB, Sweden) and OXM (AL-139, AnshLabs, USA) tests were performed according to the manufactures’ instruction manuals in a central laboratory (KingMed Diagnostics, Guangzhou, China). HbA1c was measured using a Bio-rad D-100 Haemoglobin Testing System (Bio-rad). Blood glucose was measured using a Roche Cobas c702 analyser (Roche Diagnostics). Insulin and C peptide were measured using a Roche […] analyser (Roche Diagnostics). GLP-1 and OXM were measured using a Tecan Infinite M Plex microplate reader (TECAN).
Standard non-compartmental pharmacokinetics methods were used to analyze IBI362 plasma concentration data using Pkanalix 2020R1 (Lixoft, Antony, France). Secondary efficacy outcomes included change from baseline to week 12 in HbA1c, fasting plasma glucose (FPG), fasting insulin levels, change from baseline to week 12 in post-mixed-meal tolerance test (post-MTT) glucose, insulin, C peptide, GLP-1 and OXM levels, as well as seven-point self-measured blood glucose (SMBG) profile.
IBI362 Innovent Biologics (Suzhou) Co., Ltd. CIBI362A101
3. Standard meal test (MTT) collection measures included: insulin, C-peptide, plasma glucose, glucagon, endogenous OXM, and endogenous GLP-1. The sampling points include: fasting, 30 min, 1h, 2h, 3h and 4h.
A total of 9 mL blood will be collected from each blood collection point. See the manual of the central laboratory for the detailed operation process. Fasting state refers to fasting for 10 hours. [ The standard meal is
instant noodles. The master Kang roast beef noodles (bucket noodles) purchased by the sponsor in a unified manner are removed from the oil bag. The noodles are soaked in boiled water and then removed. The seasoning
bag is added and mixed well. The time is counted from the first bite of eating. The noodles are eaten within 10 minutes, and 200 mL of water is drunk; or the instant noodles are directly opened with 200 mL of boiled
water to ensure that the noodles are eaten and the water or soup is drunk]. Visit days when MTT test is performed: 1 day prior to Cycle 1 administration, Day 80 (D80).
4. If the patient experiences drug-related adverse events during dose escalation and meets the protocol-specified tolerance criteria, dose adjustment is required at the investigator's discretion, and a standard meal test
should be performed 48 hours after the first dose after dose adjustment.
● Test by central laboratory

[4] = Body weight; settings: 1.5 mg once weekly; for Percent change from baseline in body weight, LS mean / Percent change from baseline in body weight, LS mean (SE): n=6
Procedure: as §1
The analyses for change from baseline in HbA1c, FPG, post-MTT glucose AUC0–4 h and body weight were performed using the mixed-effect model for repeated measures (MMRM) with least-squares means and standard error provided. The MMRM included the corresponding baseline value, treatment, visit and treatment-by-visit as fixed effects and patient as a random effect. Mean change or mean percent change from baseline were analysed using a restricted maximum likelihood (REML)‐based repeated measures approach in combination with the Newton Raphson Algorithm. The fix effect of visit was fitted as a repeated effect and an unstructured covariance matrix was used. In case of non-converge, matrix like Variance Components and Compound Symmetry will be tested in a subsequent order until model‐convergence is achieved. The Kenward-Roger degree of freedom was used in estimating fixed effects. No missing data imputation was conducted. For HbA1c, FPG and body weight, point estimate of treatment difference versus placebo and 90% CI were provided for each IBI362 dose group and the dulaglutide group, with nominal p values.

[5] = tested on: Chinese patients with T2D; test: Homeostatic model assessment of insulin resistance (HOMA-IR); settings: 1.5 mg once weekly, n=6
Text: as §1

Dulaglutide: open-label active reference, subcutaneously once weekly at a fixed dose of 1.5 mg [reference compound]
Change from baseline to week 12 in HOMA-β, mean [1]: 30.9%
Change from baseline to week 12 in HOMA-β, individual ([1]; single patients): 31.2% and 37.1% and 18.9% and 5.2% and 22.2% and 70.7%
Infections and infestations (SOC) [2]: 0 number of patients (%)
Upper respiratory tract infection [2]: 0 number of patients (%)
Urinary tract infection [2]: 0 number of patients (%)
C peptide during MTT, mean ([3]; week 12, 0 min): 3.04 ng/mL
C peptide during MTT, mean ([3]; week 12, 30 min): 4.18 ng/mL
C peptide during MTT, mean ([3]; week 12, 60 min): 6.16 ng/mL
C peptide during MTT, mean ([3]; week 12, 120 min): 8.34 ng/mL
C peptide during MTT, mean ([3]; week 12, 180 min): 5.85 ng/mL
C peptide during MTT, mean ([3]; week 12, 240 min): 4.53 ng/mL
Percent change from baseline to week 12 in body weight, single patients ([4]; each line a single patient): 1.8% and -0.6% and 0.5% and 1.3% and -0.126% and -7.2%
Percent change from baseline in body weight, LS mean ([4]; week 4, MMRM): -0.2%
Percent change from baseline in body weight, LS mean ([4]; week 8, MMRM): -0.8%
Percent change from baseline in body weight, LS mean (SE) ([4]; week 12, MMRM): −0.9 (1.4) % and -0.9%
Percent change from baseline in body weight, LS mean (SE) ([4]; week 12, MMRM, listed as dulaglutide): −0.9%
Body weight (percent CFB): ETD versus placebo, LS mean (90% CI) ([4]; week 12, MMRM): 0.2 ( −2.8, 3.1) %
Change from baseline to week 12 in HOMA-IR, mean [5]: -1.5
Change from baseline to week 12 in HOMA-IR, individual ([5]; single patients): 0.346 and 1.1 and -0.8 and -3.0 and -3.5
